Results taken from ChEMBL document CHEMBL4330132, “5-Keto-3-cyano-2,4-diaminothiophenes as selective maternal embryonic leucine zipper kinase inhibitors” (Bioorg Med Chem Lett, 2019).

Key:
[1] = biological target: Serine/threonine-protein kinase/endoribonuclease IRE1 (Homo sapiens) (UniProt O75460); assay: Binding affinity to wild-type human partial length ERN1 (S551 to E852 residues) expressed in mammalian expression system assessed as residual binding level at 1 uM by Kinomescan method relative to control
[2] = biological target: Cyclin-dependent kinase 18 (Homo sapiens) (UniProt Q07002); assay: Binding affinity to wild-type human full length PCTK3 (M3 to F474 residues) expressed in bacterial expression system assessed as residual binding level at 1 uM by Kinomescan method relative to control
Chain of Cyclin-dependent kinase 18 (Homo sapiens) (Q07002 whole entry, the tested form may be a part): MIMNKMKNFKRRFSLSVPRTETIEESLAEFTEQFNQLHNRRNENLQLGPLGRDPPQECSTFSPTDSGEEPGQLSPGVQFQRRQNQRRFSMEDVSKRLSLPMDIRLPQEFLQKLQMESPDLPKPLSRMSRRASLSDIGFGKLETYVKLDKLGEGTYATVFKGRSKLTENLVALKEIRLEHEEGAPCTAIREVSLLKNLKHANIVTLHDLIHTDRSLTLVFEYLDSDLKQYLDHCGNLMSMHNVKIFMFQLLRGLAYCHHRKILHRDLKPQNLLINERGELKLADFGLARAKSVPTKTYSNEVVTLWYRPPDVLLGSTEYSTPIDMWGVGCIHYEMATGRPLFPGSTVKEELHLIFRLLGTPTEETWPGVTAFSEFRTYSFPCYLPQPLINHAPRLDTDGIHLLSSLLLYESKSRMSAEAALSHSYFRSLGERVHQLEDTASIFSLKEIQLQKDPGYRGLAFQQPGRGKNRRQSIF

[3] = biological target: Serine/threonine-protein kinase 17A (Homo sapiens) (UniProt Q9UEE5); assay: Binding affinity to wild-type human partial length DRAK1 (R32 to E363 residues) expressed in bacterial expression system assessed as residual binding level at 1 uM by Kinomescan method relative to control
[4] = biological target: Serine/threonine-protein kinase 36 (Homo sapiens) (UniProt Q9NRP7); assay: Binding affinity to wild-type human partial length STK36 (M1 to T271 residues) expressed in bacterial expression system assessed as residual binding level at 1 uM by Kinomescan method relative to control
[5] = biological target: Myosin-IIIb (Homo sapiens) (UniProt Q8WXR4); assay: Binding affinity to wild-type human partial length MYO3B (M1 to D357 residues) expressed in bacterial expression system assessed as residual binding level at 1 uM by Kinomescan method relative to control
[6] = biological target: Activin receptor type-1 (Homo sapiens) (UniProt Q04771); assay: Binding affinity to wild-type human ACVR1 (C188 to C509 residues) expressed in bacterial expression system assessed as residual binding level at 1 uM by Kinomescan method relative to control
Chain of Activin receptor type-1 (Homo sapiens) (Q04771 whole entry, the tested form may be a part): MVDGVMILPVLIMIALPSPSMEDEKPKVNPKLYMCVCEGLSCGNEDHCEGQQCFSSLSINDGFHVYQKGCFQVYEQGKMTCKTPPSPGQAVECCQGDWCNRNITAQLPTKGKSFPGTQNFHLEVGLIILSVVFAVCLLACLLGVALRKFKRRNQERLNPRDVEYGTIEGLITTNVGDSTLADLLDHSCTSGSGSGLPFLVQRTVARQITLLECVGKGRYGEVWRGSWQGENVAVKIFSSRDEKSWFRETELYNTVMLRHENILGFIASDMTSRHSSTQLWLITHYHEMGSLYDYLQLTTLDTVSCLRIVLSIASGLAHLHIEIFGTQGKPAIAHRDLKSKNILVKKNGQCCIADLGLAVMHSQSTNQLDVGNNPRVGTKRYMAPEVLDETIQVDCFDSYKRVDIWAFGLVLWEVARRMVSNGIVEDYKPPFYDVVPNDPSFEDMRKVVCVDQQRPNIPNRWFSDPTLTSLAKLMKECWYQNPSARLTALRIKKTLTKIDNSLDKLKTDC

[7] = test system: Tyrosine-protein kinase ABL1 (Homo sapiens), P00519 [T315I]; assay: Binding affinity to human phosphorylated ABL1 T315I mutant (S229 to K512 residues) expressed in mammalian expression system assessed as residual binding level at 1 uM by Kinomescan method relative to control
[8] = biological target: Rho-associated protein kinase 1 (Homo sapiens) (UniProt Q13464); assay: Binding affinity to wild-type human partial length ROCK1 (M1 to R415 residues) expressed in mammalian expression system assessed as residual binding level at 1 uM by Kinomescan method relative to control
[9] = biological target: SNF-related serine/threonine-protein kinase (Homo sapiens) (UniProt Q9NRH2); assay: Binding affinity to wild-type human partial length SNRK (M1 to E339 residues) expressed in mammalian expression system assessed as residual binding level at 1 uM by Kinomescan method relative to control
Chain of SNF-related serine/threonine-protein kinase (Homo sapiens) (Q9NRH2 whole entry, the tested form may be a part): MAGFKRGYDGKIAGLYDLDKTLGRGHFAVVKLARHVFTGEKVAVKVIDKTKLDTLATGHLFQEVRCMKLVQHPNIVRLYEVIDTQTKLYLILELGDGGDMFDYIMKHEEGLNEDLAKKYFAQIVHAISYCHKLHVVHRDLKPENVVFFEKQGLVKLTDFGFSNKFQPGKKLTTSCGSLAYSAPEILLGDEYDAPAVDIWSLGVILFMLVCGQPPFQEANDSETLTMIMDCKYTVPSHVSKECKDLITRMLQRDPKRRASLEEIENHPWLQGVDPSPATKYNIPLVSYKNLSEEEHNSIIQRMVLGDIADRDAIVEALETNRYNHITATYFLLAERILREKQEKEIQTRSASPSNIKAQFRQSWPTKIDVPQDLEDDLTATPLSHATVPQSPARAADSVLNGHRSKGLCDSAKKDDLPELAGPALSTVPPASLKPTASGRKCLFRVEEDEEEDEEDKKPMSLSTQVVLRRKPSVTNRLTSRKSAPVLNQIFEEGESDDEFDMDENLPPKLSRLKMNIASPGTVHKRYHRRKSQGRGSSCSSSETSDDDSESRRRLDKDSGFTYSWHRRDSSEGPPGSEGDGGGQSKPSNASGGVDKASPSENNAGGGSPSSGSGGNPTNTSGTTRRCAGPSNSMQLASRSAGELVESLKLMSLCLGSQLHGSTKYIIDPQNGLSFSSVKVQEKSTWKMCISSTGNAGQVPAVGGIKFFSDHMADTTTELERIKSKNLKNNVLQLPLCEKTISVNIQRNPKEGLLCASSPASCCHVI

[10] = biological target: MAP kinase-interacting serine/threonine-protein kinase 2 (Homo sapiens) (UniProt Q9HBH9); assay: Binding affinity to wild-type human partial length MKNK2 (G63 to S388 residues) expressed in mammalian expression system assessed as residual binding level at 1 uM by Kinomescan method relative to control
[11] = biological target: Tyrosine-protein kinase Blk (Homo sapiens) (UniProt P51451); assay: Binding affinity to wild-type human partial length BLK (G211 to L503 residues) expressed in bacterial expression system assessed as residual binding level at 1 uM by Kinomescan method relative to control
[12] = biological target: Serine/threonine-protein kinase B-raf (Homo sapiens) (UniProt P15056); assay: Binding affinity to wild-type human partial length BRAF (S429 to E741 residues) expressed in mammalian expression system assessed as residual binding level at 1 uM by Kinomescan method relative to control
[13] = biological target: Serine/threonine-protein kinase 38 (Homo sapiens) (UniProt Q15208); assay: Binding affinity to wild-type human partial length NDR1 (N33 to E449 residues) expressed in mammalian expression system assessed as residual binding level at 1 uM by Kinomescan method relative to control
[14] = biological target: Calcium/calmodulin-dependent protein kinase type II subunit gamma (Homo sapiens) (UniProt Q13555); assay: Binding affinity to wild-type human partial length CAMK2G (R9 to A303 residues) expressed in bacterial expression system assessed as residual binding level at 1 uM by Kinomescan method relative to control
[15] = test system: Phosphatidylinositol 4,5-bisphosphate 3-kinase catalytic subunit alpha isoform (Homo sapiens), P42336 [E545A]; assay: Binding affinity to human partial length PIK3CA E545A mutant (R108 to N1068 residues) expressed in mammalian expression system assessed as residual binding level at 1 uM by Kinomescan method relative to control
[16] = biological target: Receptor-interacting serine/threonine-protein kinase 2 (Homo sapiens) (UniProt O43353); assay: Binding affinity to wild-type human partial length RIPK2 (M1 to K310 residues) expressed in bacterial expression system assessed as residual binding level at 1 uM by Kinomescan method relative to control
Chain of Receptor-interacting serine/threonine-protein kinase 2 (Homo sapiens) (O43353 whole entry, the tested form may be a part): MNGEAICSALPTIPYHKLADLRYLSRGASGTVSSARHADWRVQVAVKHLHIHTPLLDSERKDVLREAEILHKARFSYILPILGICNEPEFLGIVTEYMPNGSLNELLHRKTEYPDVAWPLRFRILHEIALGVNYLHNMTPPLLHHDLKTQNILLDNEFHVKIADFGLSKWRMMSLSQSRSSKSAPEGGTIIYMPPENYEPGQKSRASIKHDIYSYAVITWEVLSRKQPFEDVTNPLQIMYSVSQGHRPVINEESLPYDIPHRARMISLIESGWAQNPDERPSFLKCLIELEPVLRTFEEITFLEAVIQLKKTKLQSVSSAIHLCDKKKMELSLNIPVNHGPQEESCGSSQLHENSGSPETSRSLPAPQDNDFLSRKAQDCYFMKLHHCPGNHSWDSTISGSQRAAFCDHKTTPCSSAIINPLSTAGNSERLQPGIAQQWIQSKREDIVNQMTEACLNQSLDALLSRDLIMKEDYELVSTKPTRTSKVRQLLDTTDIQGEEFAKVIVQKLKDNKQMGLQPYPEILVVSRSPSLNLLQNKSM

[17] = biological target: Cyclin-dependent kinase 15 (Homo sapiens) (UniProt Q96Q40); assay: Binding affinity to wild-type human full length PFTAIRE2 (M1 to W384 residues) expressed in bacterial expression system assessed as residual binding level at 1 uM by Kinomescan method relative to control
[18] = biological target: Megakaryocyte-associated tyrosine-protein kinase (Homo sapiens) (UniProt P42679); assay: Binding affinity to wild-type human full length CTK (M43 to P508 residues) expressed in mammalian expression system assessed as residual binding level at 1 uM by Kinomescan method relative to control
[19] = test system: Serine/threonine-protein kinase B-raf (Homo sapiens), P15056 [V600E]; assay: Binding affinity to human partial length BRAF V600E mutant (S429 to E741 residues) expressed in mammalian expression system assessed as residual binding level at 1 uM by Kinomescan method relative to control
Chain of Serine/threonine-protein kinase B-raf (Homo sapiens), P15056 [V600E] (P15056 whole entry V600E, the tested form may be a part): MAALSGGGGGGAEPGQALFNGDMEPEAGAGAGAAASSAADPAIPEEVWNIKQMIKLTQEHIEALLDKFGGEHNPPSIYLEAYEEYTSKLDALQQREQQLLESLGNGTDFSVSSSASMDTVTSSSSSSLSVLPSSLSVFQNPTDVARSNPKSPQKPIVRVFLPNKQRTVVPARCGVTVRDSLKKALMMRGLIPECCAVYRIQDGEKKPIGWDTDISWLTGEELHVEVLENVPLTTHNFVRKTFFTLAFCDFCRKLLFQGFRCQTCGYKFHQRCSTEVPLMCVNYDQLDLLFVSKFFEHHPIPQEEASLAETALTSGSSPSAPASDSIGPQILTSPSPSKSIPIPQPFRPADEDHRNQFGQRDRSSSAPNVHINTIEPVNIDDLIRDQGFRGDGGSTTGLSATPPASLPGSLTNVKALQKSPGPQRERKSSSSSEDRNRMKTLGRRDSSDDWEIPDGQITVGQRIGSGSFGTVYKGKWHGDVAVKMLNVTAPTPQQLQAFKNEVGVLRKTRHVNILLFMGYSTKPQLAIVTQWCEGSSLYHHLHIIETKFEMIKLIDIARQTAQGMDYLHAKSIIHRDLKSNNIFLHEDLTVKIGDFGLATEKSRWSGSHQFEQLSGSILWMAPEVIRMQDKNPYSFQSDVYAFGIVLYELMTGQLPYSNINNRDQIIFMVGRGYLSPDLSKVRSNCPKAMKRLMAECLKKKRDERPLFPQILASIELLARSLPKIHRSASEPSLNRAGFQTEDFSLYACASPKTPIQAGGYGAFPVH

[20] = biological target: Hepatocyte growth factor receptor (Homo sapiens) (UniProt P08581); assay: Binding affinity to wild-type human partial length MET (D1010 to S1367 residues) expressed in bacterial expression system assessed as residual binding level at 1 uM by Kinomescan method relative to control
Chain of Hepatocyte growth factor receptor (Homo sapiens) (P08581 whole entry, the tested form may be a part): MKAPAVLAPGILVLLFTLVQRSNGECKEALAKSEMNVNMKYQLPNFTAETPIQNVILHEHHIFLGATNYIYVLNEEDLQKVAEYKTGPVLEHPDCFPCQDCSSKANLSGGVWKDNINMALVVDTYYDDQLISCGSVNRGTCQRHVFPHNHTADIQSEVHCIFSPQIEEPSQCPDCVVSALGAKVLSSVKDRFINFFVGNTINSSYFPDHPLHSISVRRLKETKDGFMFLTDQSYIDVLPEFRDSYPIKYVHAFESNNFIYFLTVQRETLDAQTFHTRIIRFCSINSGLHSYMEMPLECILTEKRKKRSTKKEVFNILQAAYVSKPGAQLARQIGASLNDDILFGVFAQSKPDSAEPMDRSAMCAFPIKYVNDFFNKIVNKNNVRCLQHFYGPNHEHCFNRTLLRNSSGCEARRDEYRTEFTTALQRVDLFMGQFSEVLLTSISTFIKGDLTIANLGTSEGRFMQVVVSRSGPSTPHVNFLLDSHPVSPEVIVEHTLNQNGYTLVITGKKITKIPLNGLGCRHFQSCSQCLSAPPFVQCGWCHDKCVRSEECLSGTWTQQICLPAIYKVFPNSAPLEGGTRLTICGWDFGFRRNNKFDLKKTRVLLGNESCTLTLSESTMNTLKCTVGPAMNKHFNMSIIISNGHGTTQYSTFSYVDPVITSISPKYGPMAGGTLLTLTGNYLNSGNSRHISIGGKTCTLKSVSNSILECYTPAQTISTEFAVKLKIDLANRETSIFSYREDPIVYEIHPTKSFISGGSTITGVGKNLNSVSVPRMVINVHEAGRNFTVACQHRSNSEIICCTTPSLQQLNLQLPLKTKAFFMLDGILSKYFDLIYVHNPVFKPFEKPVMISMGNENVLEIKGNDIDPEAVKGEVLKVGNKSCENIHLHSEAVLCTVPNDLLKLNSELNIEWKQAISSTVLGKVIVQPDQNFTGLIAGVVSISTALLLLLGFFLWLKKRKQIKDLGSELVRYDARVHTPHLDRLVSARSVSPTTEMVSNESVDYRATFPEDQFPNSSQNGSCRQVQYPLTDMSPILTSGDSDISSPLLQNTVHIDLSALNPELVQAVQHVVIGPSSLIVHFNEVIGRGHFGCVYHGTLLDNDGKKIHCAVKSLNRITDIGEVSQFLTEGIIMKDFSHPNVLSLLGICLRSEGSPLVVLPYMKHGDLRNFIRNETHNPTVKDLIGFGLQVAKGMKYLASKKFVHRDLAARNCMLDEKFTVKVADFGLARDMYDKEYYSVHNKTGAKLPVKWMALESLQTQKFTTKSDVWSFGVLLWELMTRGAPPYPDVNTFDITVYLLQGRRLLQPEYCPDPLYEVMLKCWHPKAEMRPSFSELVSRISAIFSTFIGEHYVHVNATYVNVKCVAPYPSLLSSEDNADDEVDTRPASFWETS

[21] = test system: Mast/stem cell growth factor receptor Kit (Homo sapiens), P10721 [V559D]; assay: Binding affinity to human partial length KIT V559D mutant (Y545 to D952 residues) expressed in bacterial expression system assessed as residual binding level at 1 uM by Kinomescan method relative to control
[22] = biological target: Mitogen-activated protein kinase kinase kinase 10 (Homo sapiens) (UniProt Q02779); assay: Binding affinity to wild-type human partial length MLK2 (V52 to W380 residues) expressed in bacterial expression system assessed as residual binding level at 1 uM by Kinomescan method relative to control
[23] = biological target: Bone morphogenetic protein receptor type-1A (Homo sapiens) (UniProt P36894); assay: Binding affinity to wild-type human partial length BMPR1A (Q214 to I532 residues) expressed in bacterial expression system assessed as residual binding level at 1 uM by Kinomescan method relative to control
Chain of Bone morphogenetic protein receptor type-1A (Homo sapiens) (P36894 whole entry, the tested form may be a part): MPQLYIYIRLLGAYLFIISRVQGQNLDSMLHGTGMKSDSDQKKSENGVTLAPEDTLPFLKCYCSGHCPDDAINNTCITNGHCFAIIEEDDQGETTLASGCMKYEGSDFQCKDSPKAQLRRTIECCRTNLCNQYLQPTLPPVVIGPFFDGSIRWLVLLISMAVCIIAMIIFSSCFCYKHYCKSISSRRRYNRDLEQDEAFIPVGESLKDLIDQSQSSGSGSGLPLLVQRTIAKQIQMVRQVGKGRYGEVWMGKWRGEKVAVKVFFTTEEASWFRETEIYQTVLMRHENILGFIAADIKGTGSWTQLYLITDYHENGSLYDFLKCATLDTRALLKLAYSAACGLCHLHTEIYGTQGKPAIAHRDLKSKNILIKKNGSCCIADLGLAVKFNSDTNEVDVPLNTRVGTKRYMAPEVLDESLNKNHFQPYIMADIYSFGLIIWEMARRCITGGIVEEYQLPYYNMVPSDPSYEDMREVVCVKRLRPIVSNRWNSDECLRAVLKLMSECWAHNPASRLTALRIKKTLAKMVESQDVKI

[24] = biological target: SRSF protein kinase 1 (Homo sapiens) (UniProt Q96SB4); assay: Binding affinity to wild-type human full length SRPK1 (M1 to S655 residues) expressed in bacterial expression system assessed as residual binding level at 1 uM by Kinomescan method relative to control

CC(C)Nc1sc(C(=O)c2ccc(Cl)s2)c(N)c1C#N
Activity [1]: 100%
Activity [2]: 100%
Activity [3]: 61%
Activity [4]: 88%
Activity [5]: 98%
Activity [6]: 47%
Activity [7]: 100%
Activity [8]: 100%
Activity [9]: 91%
Activity [10]: 100%
Activity [11]: 60%
Activity [12]: 89%
Activity [13]: 74%
Activity [14]: 74%
Activity [15]: 100%
Activity [16]: 82%
Activity [17]: 79%
Activity [18]: 100%
Activity [19]: 97%
Activity [20]: 68%
Activity [21]: 59%
Activity [22]: 100%
Activity [23]: 100%
Activity [24]: 100%
